Patent US10681909B2, “Herbicidal triazoles” (FMC Corporation, priority 2014, dated 2020)

Legend:
barnyardgrass [1] = assay: Test A preemergence; assay type: in vivo, Echinochloa crus-galli; details: 0 to 100 scale (0 no effect, 100 complete control)
Source text: (§1) Seeds of plant species selected from barnyardgrass (Echinochloa crus-galli), crabgrass, large (large crabgrass, Digitaria sanguinalis), kochia (Kochia scoparia), ragweed (common ragweed, Ambrosia elatior), foxtail, giant (giant foxtail, Setaria faberii), morningglory (Ipomoea spp.), pigweed (Amaranthus retroflexus), velvetleaf (Abutilon theophrasti), ryegrass, Italian (Italian ryegrass, Lolium multiflorum), wheat (Triticum aestivum), and corn (Zea mays) were planted into a blend of loam soil and sand and treated preemergence with a directed soil spray using test chemicals formulated in a non-phytotoxic solvent mixture which included a surfactant. At the same time, plants selected from these crop and weed species and also blackgrass (Alopecurus myosuroides), and galium (catchweed bedstraw, Galium aparine), were planted in pots containing the same blend of loam soil and sand and treated with postemergence applications of test chemicals formulated in the same manner. Plants ranged in height from 2 to 10 cm and were in the one- to two-leaf stage for the postemergence treatment. […] A dash (-) response means no test result.

ryegrass, Italian [2] = assay: Test A preemergence; assay type: in vivo, Lolium multiflorum; details: 0 to 100 scale (0 no effect, 100 complete control)
Source text: (§2) Seeds of plant species selected from barnyardgrass (Echinochloa crus-galli), crabgrass, large (large crabgrass, Digitaria sanguinalis), kochia (Kochia scoparia), ragweed (common ragweed, Ambrosia elatior), foxtail, giant (giant foxtail, Setaria faberii), morningglory (Ipomoea spp.), pigweed (Amaranthus retroflexus), velvetleaf (Abutilon theophrasti), ryegrass, Italian (Italian ryegrass, Lolium multiflorum), wheat (Triticum aestivum), and corn (Zea mays) were planted into a blend of loam soil and sand and treated preemergence with a directed soil spray using test chemicals formulated in a non-phytotoxic solvent mixture which included a surfactant.
(§3) At the same time, plants selected from these crop and weed species and also blackgrass (Alopecurus myosuroides), and galium (catchweed bedstraw, Galium aparine), were planted in pots containing the same blend of loam soil and sand and treated with postemergence applications of test chemicals formulated in the same manner. Plants ranged in height from 2 to 10 cm and were in the one- to two-leaf stage for the postemergence treatment. Treated plants and untreated controls were maintained in a greenhouse for approximately 10 d, after which time all treated plants were compared to untreated controls and visually evaluated for injury. Plant response ratings, summarized in Table A, are based on a 0 to 100 scale where 0 is no effect and 100 is complete control. A dash (-) response means no test result.

kochia [3] = assay: Test A preemergence; assay type: in vivo, Kochia scoparia; details: 0 to 100 scale (0 no effect, 100 complete control)
Source text: as §2, §3

barnyardgrass [4] = assay: Test A postemergence; assay type: in vivo, Echinochloa crus-galli; details: 0 to 100 scale (0 no effect, 100 complete control), approx. 10 d
Source text: as §1

wheat = assay: Test A postemergence; assay type: in vivo, Triticum aestivum; details: 0 to 100 scale (0 no effect, 100 complete control), approx. 10 d
Source text: as §1

corn = assay: Test A postemergence; assay type: in vivo, Zea mays; details: 0 to 100 scale (0 no effect, 100 complete control), approx. 10 d
Source text: as §1

foxtail, giant [5] = assay: Test A preemergence; assay type: in vivo, Setaria faberii; details: 0 to 100 scale (0 no effect, 100 complete control)
Source text: as §1

ragweed [6] = assay: Test A preemergence; assay type: in vivo, Ambrosia elatior; details: 0 to 100 scale (0 no effect, 100 complete control)
Source text: as §2, §3

kochia [7] = assay: Test A postemergence; assay type: in vivo, Kochia scoparia; details: 0 to 100 scale (0 no effect, 100 complete control), approx. 10 d
Source text: as §2, §3

ragweed [8] = assay: Test A postemergence; assay type: in vivo, Ambrosia elatior; details: 0 to 100 scale (0 no effect, 100 complete control), approx. 10 d
Source text: as §2, §3

foxtail, giant [9] = assay: Test A postemergence; assay type: in vivo, Setaria faberii; details: 0 to 100 scale (0 no effect, 100 complete control), approx. 10 d
Source text: as §1

ryegrass, Italian [10] = assay: Test A postemergence; assay type: in vivo, Lolium multiflorum; details: 0 to 100 scale (0 no effect, 100 complete control), approx. 10 d
Source text: as §2, §3

pigweed [11] = assay: Test A postemergence; assay type: in vivo, Amaranthus retroflexus; details: 0 to 100 scale (0 no effect, 100 complete control), approx. 10 d
Source text: as §1

pigweed [12] = assay: Test A preemergence; assay type: in vivo, Amaranthus retroflexus; details: 0 to 100 scale (0 no effect, 100 complete control)
Source text: as §1

blackgrass = assay: Test A postemergence; assay type: in vivo, Alopecurus myosuroides; details: 0 to 100 scale (0 no effect, 100 complete control), approx. 10 d
Source text: as §2, §3

galium = assay: Test A postemergence; assay type: in vivo, Galium aparine; details: 0 to 100 scale (0 no effect, 100 complete control), approx. 10 d
Source text: as §2, §3

Cc1nc(-c2ccc(OC(F)(F)F)cc2)nn1Cc1ccnc(C(F)(F)F)c1 [Compound 37]
Plant response rating, Barnyardgrass (barnyardgrass [1]; 31 g ai/ha): 0 | Plant response rating, Barnyardgrass (barnyardgrass [1]; 125 g ai/ha): 0 | Plant response rating, Ryegrass, Italian (ryegrass, Italian [2]; 31 g ai/ha): 0 | Plant response rating, Ryegrass, Italian (ryegrass, Italian [2]; 125 g ai/ha): 0 | Plant response rating, Kochia (kochia [3]; 31 g ai/ha): 0 | Plant response rating, Kochia (kochia [3]; 125 g ai/ha): 0 | Plant response rating, Barnyardgrass (barnyardgrass [4]; 31 g ai/ha): 0 | Plant response rating, Barnyardgrass (barnyardgrass [4]; 125 g ai/ha): 0 | Plant response rating, Wheat (wheat; 31 g ai/ha): 0 | Plant response rating, Wheat (wheat; 125 g ai/ha): 0 | Plant response rating, Corn (corn; 31 g ai/ha): 10 | Plant response rating, Corn (corn; 125 g ai/ha): 20 | Plant response rating, Foxtail, Giant (foxtail, giant [5]; 31 g ai/ha): 0 | Plant response rating, Foxtail, Giant (foxtail, giant [5]; 125 g ai/ha): 0 | Plant response rating, Ragweed (ragweed [6]; 31 g ai/ha): 0 | Plant response rating, Ragweed (ragweed [6]; 125 g ai/ha): 0 | Plant response rating, Kochia (kochia [7]; 31 g ai/ha): 20 | Plant response rating, Kochia (kochia [7]; 125 g ai/ha): 70 | Plant response rating, Ragweed (ragweed [8]; 31 g ai/ha): 0 | Plant response rating, Ragweed (ragweed [8]; 125 g ai/ha): 0 | Plant response rating, Foxtail, Giant (foxtail, giant [9]; 31 g ai/ha): 0 | Plant response rating, Foxtail, Giant (foxtail, giant [9]; 125 g ai/ha): 0 | Plant response rating, Ryegrass, Italian (ryegrass, Italian [10]; 31 g ai/ha): 0 | Plant response rating, Ryegrass, Italian (ryegrass, Italian [10]; 125 g ai/ha): 0 | Plant response rating, Pigweed (pigweed [11]; 31 g ai/ha): 20 | Plant response rating, Pigweed (pigweed [11]; 125 g ai/ha): 80 | Plant response rating, Pigweed (pigweed [12]; 31 g ai/ha): 10 | Plant response rating, Pigweed (pigweed [12]; 125 g ai/ha): 20 | Plant response rating, Blackgrass (blackgrass; 31 g ai/ha): 0 | Plant response rating, Blackgrass (blackgrass; 125 g ai/ha): 20 | Plant response rating, Galium (galium; 31 g ai/ha): 0 | Plant response rating, Galium (galium; 125 g ai/ha): 20

Cc1nc(-c2ccc(F)cc2)nn1Cc1ccnc(C(F)(F)F)c1 [Compound 38]
Plant response rating, Barnyardgrass (barnyardgrass [1]; 31 g ai/ha): 0 | Plant response rating, Barnyardgrass (barnyardgrass [1]; 125 g ai/ha): 80 | Plant response rating, Ryegrass, Italian (ryegrass, Italian [2]; 31 g ai/ha): 0 | Plant response rating, Ryegrass, Italian (ryegrass, Italian [2]; 125 g ai/ha): 10 | Plant response rating, Kochia (kochia [3]; 31 g ai/ha): 30 | Plant response rating, Kochia (kochia [3]; 125 g ai/ha): 100 | Plant response rating, Barnyardgrass (barnyardgrass [4]; 31 g ai/ha): 0 | Plant response rating, Barnyardgrass (barnyardgrass [4]; 125 g ai/ha): 20 | Plant response rating, Wheat (wheat; 31 g ai/ha): 0 | Plant response rating, Wheat (wheat; 125 g ai/ha): 10 | Plant response rating, Corn (corn; 31 g ai/ha): 10 | Plant response rating, Corn (corn; 125 g ai/ha): 30 | Plant response rating, Foxtail, Giant (foxtail, giant [5]; 31 g ai/ha): 20 | Plant response rating, Foxtail, Giant (foxtail, giant [5]; 125 g ai/ha): 100 | Plant response rating, Ragweed (ragweed [6]; 31 g ai/ha): 0 | Plant response rating, Ragweed (ragweed [6]; 125 g ai/ha): 20 | Plant response rating, Kochia (kochia [7]; 31 g ai/ha): 70 | Plant response rating, Kochia (kochia [7]; 125 g ai/ha): 90 | Plant response rating, Ragweed (ragweed [8]; 31 g ai/ha): 0 | Plant response rating, Ragweed (ragweed [8]; 125 g ai/ha): 30 | Plant response rating, Foxtail, Giant (foxtail, giant [9]; 31 g ai/ha): 20 | Plant response rating, Foxtail, Giant (foxtail, giant [9]; 125 g ai/ha): 80 | Plant response rating, Ryegrass, Italian (ryegrass, Italian [10]; 31 g ai/ha): 0 | Plant response rating, Ryegrass, Italian (ryegrass, Italian [10]; 125 g ai/ha): 0 | Plant response rating, Pigweed (pigweed [11]; 31 g ai/ha): 80 | Plant response rating, Pigweed (pigweed [11]; 125 g ai/ha): 90 | Plant response rating, Pigweed (pigweed [12]; 31 g ai/ha): 90 | Plant response rating, Pigweed (pigweed [12]; 125 g ai/ha): 100 | Plant response rating, Blackgrass (blackgrass; 31 g ai/ha): 10 | Plant response rating, Blackgrass (blackgrass; 125 g ai/ha): 40 | Plant response rating, Galium (galium; 31 g ai/ha): 30 | Plant response rating, Galium (galium; 125 g ai/ha): 90

CCc1nc(-c2ccncc2)nn1Cc1ccnc(C(F)(F)F)c1 [Compound 39]
Plant response rating, Barnyardgrass (barnyardgrass [1]; 31 g ai/ha): 0 | Plant response rating, Barnyardgrass (barnyardgrass [1]; 125 g ai/ha): 0 | Plant response rating, Ryegrass, Italian (ryegrass, Italian [2]; 31 g ai/ha): 0 | Plant response rating, Ryegrass, Italian (ryegrass, Italian [2]; 125 g ai/ha): 0 | Plant response rating, Kochia (kochia [3]; 31 g ai/ha): 0 | Plant response rating, Kochia (kochia [3]; 125 g ai/ha): 0 | Plant response rating, Barnyardgrass (barnyardgrass [4]; 31 g ai/ha): 0 | Plant response rating, Barnyardgrass (barnyardgrass [4]; 125 g ai/ha): 10 | Plant response rating, Wheat (wheat; 31 g ai/ha): 0 | Plant response rating, Wheat (wheat; 125 g ai/ha): 0 | Plant response rating, Corn (corn; 31 g ai/ha): 0 | Plant response rating, Corn (corn; 125 g ai/ha): 20 | Plant response rating, Foxtail, Giant (foxtail, giant [5]; 31 g ai/ha): 0 | Plant response rating, Foxtail, Giant (foxtail, giant [5]; 125 g ai/ha): 30 | Plant response rating, Ragweed (ragweed [6]; 31 g ai/ha): 0 | Plant response rating, Ragweed (ragweed [6]; 125 g ai/ha): 0 | Plant response rating, Kochia (kochia [7]; 31 g ai/ha): 50 | Plant response rating, Kochia (kochia [7]; 125 g ai/ha): 70 | Plant response rating, Ragweed (ragweed [8]; 31 g ai/ha): 20 | Plant response rating, Ragweed (ragweed [8]; 125 g ai/ha): 30 | Plant response rating, Foxtail, Giant (foxtail, giant [9]; 31 g ai/ha): 10 | Plant response rating, Foxtail, Giant (foxtail, giant [9]; 125 g ai/ha): 20 | Plant response rating, Ryegrass, Italian (ryegrass, Italian [10]; 31 g ai/ha): 0 | Plant response rating, Ryegrass, Italian (ryegrass, Italian [10]; 125 g ai/ha): 0 | Plant response rating, Pigweed (pigweed [11]; 31 g ai/ha): 60 | Plant response rating, Pigweed (pigweed [11]; 125 g ai/ha): 70 | Plant response rating, Pigweed (pigweed [12]; 31 g ai/ha): 30 | Plant response rating, Pigweed (pigweed [12]; 125 g ai/ha): 90 | Plant response rating, Blackgrass (blackgrass; 31 g ai/ha): 0 | Plant response rating, Blackgrass (blackgrass; 125 g ai/ha): 0 | Plant response rating, Galium (galium; 31 g ai/ha): 40 | Plant response rating, Galium (galium; 125 g ai/ha): 60
